We go through two compounds from ChEMBL document CHEMBL5150017, “Mechanism of Action and Structure-Activity Relationship of α-Conotoxin Mr1.1 at the Human α9α10 Nicotinic Acetylcholine Receptor” (J Med Chem, 2022).

Assay [1] deals with Neuronal acetylcholine receptor; alpha9/alpha10 (Homo sapiens, UniProt Q9GZZ6+Q9UGM1). The assay can be described thus: Antagonist activity at human alpha9alpha10 nAChR expressed in Xenopus laevis oocytes assessed as inhibition of ACh-induced current amplitude at -80 mV holding potential by two-electrode voltage clamp method. The format is cell-based, Oocyte.
Assay [2] has as its target T1, Neuronal acetylcholine receptor; alpha9/alpha10 (Homo sapiens) (UniProt Q9UGM1+Q9GZZ6). In words: Antagonist activity at human alpha9alpha10 nAChR expressed in Xenopus laevis oocytes assessed as inhibition of ACh-induced current amplitude at -80 mV holding potential at 10 uM by two-electrode voltage clamp method. Conditions: Oocyte. The format is cell-based.
Assay [3] addresses T1, Neuronal acetylcholine receptor; alpha9/alpha10 (Homo sapiens). The assay can be described thus: Antagonist activity at human alpha9alpha10 nAChR expressed in Xenopus laevis oocytes assessed as inhibition of ACh-induced current amplitude at -80 mV holding potential at 1 uM by two-electrode voltage clamp method. The format is cell-based. The following applies: Oocyte.

Neuronal acetylcholine receptor; alpha9/alpha10, sequence (Q9UGM1 whole entry): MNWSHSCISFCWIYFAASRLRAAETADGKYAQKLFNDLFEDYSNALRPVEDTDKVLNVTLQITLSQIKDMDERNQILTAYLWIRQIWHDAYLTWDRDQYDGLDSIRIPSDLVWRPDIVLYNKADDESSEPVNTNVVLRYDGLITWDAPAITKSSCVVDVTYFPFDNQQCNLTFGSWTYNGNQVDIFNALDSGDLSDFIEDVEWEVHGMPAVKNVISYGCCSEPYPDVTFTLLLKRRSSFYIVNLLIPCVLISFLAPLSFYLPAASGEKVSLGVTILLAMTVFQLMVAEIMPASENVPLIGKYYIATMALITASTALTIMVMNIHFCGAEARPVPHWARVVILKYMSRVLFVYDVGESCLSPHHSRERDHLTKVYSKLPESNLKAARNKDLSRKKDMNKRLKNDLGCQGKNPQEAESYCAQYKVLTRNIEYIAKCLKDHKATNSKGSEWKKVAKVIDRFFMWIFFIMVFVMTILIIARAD
Neuronal acetylcholine receptor; alpha9/alpha10, sequence (Q9GZZ6 whole entry): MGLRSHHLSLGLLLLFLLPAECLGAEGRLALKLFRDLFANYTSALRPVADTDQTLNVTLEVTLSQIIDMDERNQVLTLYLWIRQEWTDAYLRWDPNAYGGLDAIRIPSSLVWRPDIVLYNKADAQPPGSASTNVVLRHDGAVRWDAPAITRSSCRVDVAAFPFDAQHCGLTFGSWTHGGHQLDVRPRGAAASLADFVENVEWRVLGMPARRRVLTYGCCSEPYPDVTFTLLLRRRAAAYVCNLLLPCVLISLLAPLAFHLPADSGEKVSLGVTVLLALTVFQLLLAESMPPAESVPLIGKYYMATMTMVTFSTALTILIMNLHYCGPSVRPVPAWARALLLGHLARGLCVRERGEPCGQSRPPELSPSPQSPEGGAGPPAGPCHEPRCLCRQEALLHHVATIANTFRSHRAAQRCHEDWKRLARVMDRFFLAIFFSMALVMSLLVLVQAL

Turning to `N=C(N)NCCC[C@H](NC(=O)[C@H](CS)NC(=O)[C@H](CCCNC(=N)N)NC(=O)[C@H](Cc1ccc(O)cc1)NC(=O)[C@H](CCCNC(=N)N)NC(=O)[C@H](CS)NC(=O)[C@H](CCCNC(=N)N)NC(=O)[C@@H]1CCCN1C(=O)[C@H](CC(=O)O)NC(=O)[C@H](CO)NC(=O)[C@H](CS)NC(=O)[C@H](CS)NC(=O)CN)C(=O)O`, the 50% inhibitory concentration (IC50) in assay [1] came to 500 nM. `CC[C@H](C)[C@@H]1NC(=O)[C@H](CCC(=O)O)NC(=O)[C@@H]2CCCN2C(=O)[C@H](Cc2cnc[nH]2)NC(=O)[C@H](CC(=O)O)NC(=O)[C@H](Cc2ccc(O)cc2)NC(=O)[C@H](CC(N)=O)NC(=O)[C@@H]2CSSC[C@H](NC(=O)CN)C(=O)N[C@@H](CSSC[C@@H](C(N)=O)NC1=O)C(=O)N[C@@H](CO)C(=O)N[C@@H](CC(=O)O)C(=O)N1CCC[C@H]1C(=O)N[C@@H](CCCNC(=N)N)C(=O)N2`: the inhibition in assay [2] came out at 0%; in assay [3], 20%.
